From patent publication US20100028463A1, “EXTRACT OF STEWARTIA KOREANA AND USE THEREOF” (priority 2006, published 2010)

Test system: human umbilical vein endothelial cells (HUVEC)
Experiment: Migration of endothelial cells, Boyden chamber method
Type: cell-based
Conditions: positive control, 10 ng/mL VEGF, cultured 2 hours
Method: 0.1% gelatin was applied on a polycarbonate membrane (Costar, USA) for 10 minutes and dried at room temperature for 1 hour. 30 μL of human umbilical vein endothelial cells (HUVEC, 1×10^6 cells/mL) was put in a lower chamber of a trans-wells (Costar, USA), covered with the dried polycarbonate membrane, and an upper chamber was overlaid, followed by fixing by a screw. The chamber was turned over so that the cells could be attached to the membrane and cultured at 37° C. in a CO2 incubator for 2 hours.
50 μL of Stewartia koreana extract according to the present invention was added to the upper chamber and cultured for 2 hours. The polycarbonate membrane was died using the diff-quick staining agent and the migrated endothelial cells were counted through the polycarbonate membrane using a microscope (Table 1). Each dry extract powder of Stewartia koreana otained in Example were dissolved in water in an amount of 100 μg/mL. The negative control was water and the positive control was 10 ng/mL of VEGF (vascular endothelialgrowth factor, Sigma).
The polycarbonate membrane was stained with diff-quick staining agent and the number of the endothelial cells which had migrated through the polycarbonate membrane was then counted using a microscope (FIG. 1). […] The dry powder of the ethanol extract of Stewartia koreana and compound Madecassol™ were added to water in an amount of 12.5 to 100 μg/mL.

VEGF
Migrated endothelial cells: 75 ± 0.41
